In ChEMBL document CHEMBL1201862, “PubChem BioAssay data set” (2004):
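Interpolation was linear, between the two tested concentrations surrounding the appropriate level; five concentrations were tested over 48 hours in 96-well plates. GI50 = concentration required for 50% inhibition of growth.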 Activity calls are given as the source filed them. Rule as the data show it: active = GI50 up to about 1.1 µM and inactive = higher.

Assays:
Assay in all cases: DTP human tumour cell line panel, 48 h
786-0 = test system: 786-0
A498 = test system: A498
A549 = test system: A549
ACHN = test system: ACHN
BT-549 = test system: BT-549
CAKI-1 = test system: CAKI-1
CCRF-CEM = test system: CCRF-CEM
COLO 205 = test system: COLO 205
DU-145 = test system: DU-145
EKVX = test system: EKVX
HCC 2998 = test system: HCC 2998
HCT-116 = test system: HCT-116
HL-60 = test system: HL-60
HOP-62 = test system: HOP-62
HOP-92 = test system: HOP-92
HT-29 = test system: HT-29
Hs-578T = test system: Hs-578T
IGROV-1 = test system: IGROV-1
K562 = test system: K562
KM12 = test system: KM12
LOX IMVI = test system: LOX IMVI
M14 = test system: M14
MCF7 = test system: MCF7
MDA-MB-231 = test system: MDA-MB-231
MDA-MB-435 = test system: MDA-MB-435
MDA-N = test system: MDA-N
MOLT-4 = test system: MOLT-4
Malme-3M = test system: Malme-3M
NCI-H226 = test system: NCI-H226
NCI-H23 = test system: NCI-H23
NCI-H460 = test system: NCI-H460
NCI-H522 = test system: NCI-H522
NCI/ADR-RES = test system: NCI/ADR-RES
OVCAR-3 = test system: OVCAR-3
OVCAR-4 = test system: OVCAR-4
OVCAR-5 = test system: OVCAR-5
OVCAR-8 = test system: OVCAR-8
PC-3 = test system: PC-3
RPMI-8226 = test system: RPMI-8226
RXF 393 = test system: RXF 393
SF-268 = test system: SF-268
SF-295 = test system: SF-295
SF-539 = test system: SF-539
SK-MEL-28 = test system: SK-MEL-28
SK-MEL-5 = test system: SK-MEL-5
SK-OV-3 = test system: SK-OV-3
SN12C = test system: SN12C
SNB-19 = test system: SNB-19
SNB-75 = test system: SNB-75
SR = test system: SR
SW-620 = test system: SW-620
T47D = test system: T47D
TK-10 = test system: TK-10
U-251 = test system: U-251
UACC-257 = test system: UACC-257
UACC-62 = test system: UACC-62
UO-31 = test system: UO-31

Measured: GI50

O=C(O)c1cc(O)c2c(c1)C([C@@H]1c3cccc(O)c3C(=O)c3c(O)cc(C(=O)O)cc31)c1cccc(O)c1C2=O (some centres not stated)
inactive: 786-0 51.5 µM | A498 22.7 µM | A549 > 100 µM | ACHN 81.5 µM | BT-549 51.1 µM | CAKI-1 > 100 µM | CCRF-CEM 30.5 µM | COLO 205 > 100 µM | DU-145 > 100 µM | EKVX 37.2 µM | HCC 2998 47.4 µM | HCT-116 20.4 µM | HL-60 29.9 µM | HOP-62 > 10 µM | HOP-92 23.2 µM | HT-29 96.2 µM | Hs-578T 24.9 µM | IGROV-1 22.9 µM | K562 23.8 µM | KM12 20.5 µM | LOX IMVI 15.8 µM | M14 > 10 µM | MCF7 37 µM | MDA-MB-231 23.5 µM | MDA-MB-435 24.6 µM | MDA-N 20.3 µM | MOLT-4 20.7 µM | Malme-3M 23.7 µM | NCI-H226 33.7 µM | NCI-H23 30.4 µM | NCI-H460 > 100 µM | NCI-H522 19.7 µM | NCI/ADR-RES 43.8 µM | OVCAR-3 66.5 µM | OVCAR-4 > 100 µM | OVCAR-5 > 100 µM | OVCAR-8 33.4 µM | PC-3 36.1 µM | RPMI-8226 32.9 µM | RXF 393 28.2 µM | SF-268 31.4 µM | SF-295 34.7 µM | SF-539 19.5 µM | SK-MEL-28 33.2 µM | SK-MEL-5 17.6 µM | SK-OV-3 > 100 µM | SN12C 34.7 µM | SNB-19 57 µM | SNB-75 25.3 µM | SR 39.3 µM | SW-620 35.4 µM | T47D 59.6 µM | TK-10 99.1 µM | U-251 25.4 µM | UACC-257 35.5 µM | UACC-62 31 µM | UO-31 > 100 µM
